{"source": "paper PMC4551797", "about": "(PLoS ONE, 2015)", "key": {"C57BL/6 mice [1]": {"tested_on": "C57BL/6 mice", "experiment": "Acute in vivo incretin secretion assay (plasma GLP-1 and PYY AUC)", "details": "fasted mice, 3-hour time course", "from_the_text": "Plasma was separated by centrifugation, aliquoted, and analyzed for GLP-1 (X-36) amide (Mesoscale Discovery) and total PYY (Millipore). Resulting raw data was used to generate area under the curve analyses (AUCs)."}, "C57BL/6 mice [2]": {"tested_on": "C57BL/6 mice", "experiment": "Oral glucose tolerance test with hormone measurement", "type": "in vivo, mouse", "details": "30 mg/kg oral, glucose 3 g/kg", "protocol": "For measurement of glucose only, overnight-fasted C57BL/6 mice in a normal light cycle were orally dosed with vehicle or compound, followed by an oral bolus of 3 g/kg glucose at 15 minutes post compound. At 0, 20, 40, 60, and 120 minutes post glucose dose, blood glucose was assessed via glucometers. Resulting raw data was used to generate AUCs. For measurement of hormones and glucose, overnight-fasted C57BL/6 mice acclimated for two weeks to a reverse light cycle were orally dosed with vehicle or compound, followed by an oral bolus of 3 g/kg glucose at 15 minutes post compound. At 0, 2, 5, 10, 20, 40, and 60 minutes post glucose dose, blood glucose was assessed via glucometers, followed immediately by collection of plasma for active GLP-1 (Mesoscale Discovery), insulin (Mesoscale Discovery), and total PYY. Glucose tolerance tests in diet-induced obese (DIO) C57BL/6 mice were performed in overnight-fasted animals dosed either acutely or after 2-week administration with vehicle or compound 18 at 60 mg/kg, followed 30 minutes post compound by an oral bolus of 2 g/kg glucose. At 0, 15, 30, 60, and 120 minutes post glucose dose, blood glucose was assessed via glucometers. Resulting raw data was used to generate AUCs.\nTo evaluate glucose, insulin, GLP-1, and PYY levels throughout the OGTT, each time-point consisted of a separate group of mice that were used to record glucose by use of a glucometer followed by terminal bleeds for measurement of active GLP-1, total PYY, and insulin. AUCs were then calculated for the entire hour of the OGTT. […] Changes in insulin AUCs were not increased with treatment of either sitagliptin or compound 18, likely due to the lower glucose levels reducing the drive for glucose-stimulated insulin secretion (Fig 5D).\nFig 5 Compound 18 increases GLP-1 and PYY and lowers the glucose and insulin excursions as compared to sitagliptin in an OGTT in C57BL/6 mice. […] Plasma was analyzed for active GLP-1 (A), total PYY (B), and insulin (D), while blood glucose was measured by glucometers (C)."}}, "data": [{"smiles": "CC(=O)N1CCC(C(C)N(C(=O)COc2cccc3sc4nc(C)cn4c23)c2ccc(F)cc2)CC1", "note": "(stereo not drawn) [compound 18]", "values": [{"measurement": "GLP-1 AUC increase over vehicle", "setting": "C57BL/6 mice [1]; 3 mg/kg oral", "value": 1.2, "unit": "fold over vehicle"}, {"measurement": "PYY AUC increase over vehicle", "setting": "C57BL/6 mice [1]; 3 mg/kg oral", "value": 1.1, "unit": "fold over vehicle"}, {"measurement": "GLP-1 AUC increase over vehicle", "setting": "C57BL/6 mice [1]; 10 mg/kg oral", "value": 2.0, "unit": "fold over vehicle"}, {"measurement": "PYY AUC increase over vehicle", "setting": "C57BL/6 mice [1]; 10 mg/kg oral", "value": 1.5, "unit": "fold over vehicle"}, {"measurement": "GLP-1 AUC increase over vehicle", "setting": "C57BL/6 mice [1]; 30 mg/kg oral", "value": 5.7, "unit": "fold over vehicle"}, {"measurement": "PYY AUC increase over vehicle", "setting": "C57BL/6 mice [1]; 30 mg/kg oral", "value": 3.1, "unit": "fold over vehicle"}, {"measurement": "GLP-1 AUC increase over vehicle", "setting": "C57BL/6 mice [1]; 100 mg/kg oral", "value": 12.1, "unit": "fold over vehicle"}, {"measurement": "PYY AUC increase over vehicle", "setting": "C57BL/6 mice [1]; 100 mg/kg oral", "value": 4.9, "unit": "fold over vehicle"}, {"measurement": "AUC of active GLP-1 during OGTT", "setting": "C57BL/6 mice [2]; 1 hour", "value": "superior AUC for active GLP-1 above both vehicle and sitagliptin"}, {"measurement": "AUC of total PYY during OGTT", "setting": "C57BL/6 mice [2]; 1 hour", "value": "higher increase in the AUC of total PYY above both vehicle and sitagliptin"}, {"measurement": "insulin AUC during OGTT", "setting": "C57BL/6 mice [2]; 1 hour", "value": "not increased"}, {"measurement": "glucose excursion during OGTT", "setting": "C57BL/6 mice [2]; versus sitagliptin 10 mg/kg", "value": "levels indistinguishable from those of sitagliptin-treated animals"}]}]}
